Source: US5516790A, “Synthesis and application of alkyl-substituted dibenzofurans as antitumorigenic agents” (Texas A&M University System Technology Licensing Office, priority 1994, dated 1996)

Columns and labels:
female rat uterus = test: Antiestrogenic effect on uterine wet weight, immature female Sprague-Dawley rats (Example 8); format: in vivo
[1] = system: progesterone receptor (PR); test: Uterine progesterone receptor levels, hydroxyapatite assay (Example 8); format: in vivo, female Sprague-Dawley rats
Protocol: (§1) The animals were terminated by cervical dislocation. Livers were perfused with ice-cold TEDG buffer (10 mM Tris-HCl, 1.5 mM EDTA-4Na, 1 mM dithiothreitol, 10% glycerol (v/v), pH 7.4). Following perfusion in situ, livers were removed, weighed, and homogenized in ice-cold TEDG buffer. Uteri were also removed, weighed, and homogenized in ice-cold buffer. The homogenates were then centrifuged at 800×g ([…]) for 15 minutes and the nuclear pellets were stored at -80° C. The supernatants were further centrifuged at 180,000× g for 1.5 hours. The cytosolic supernatant was also stored at -80° C. Estrogen and progesterone receptor levels were determined within 7 days.
(§2) Estrogen (ER) and progesterone (PR) receptor levels were determined by the hydroxyapatite assay as described by Clark et al. (J. Steroid Biochem. 16:323-328, 1982) and incorporated herein by reference. […] Following the incubations, samples were counted and specific binding was calculated by subtraction of nonspecific from total binding. Assuming one steroid molecule binds to one estrogen/progesterone receptor, the number of moles of receptor can be calculated given the specific activity of the radioligand. The data presented in Tables 1 through 6 are means ± SD using at least four animals per treatment group. Significant differences were determined by analysis of variance.

estrogen receptor (ER) = test: Uterine estrogen receptor levels, hydroxyapatite assay (Example 8); format: in vivo, female Sprague-Dawley rats
Protocol: A second group of animals was similarly treated with corn oil, TCDD, MCDF, or TCDD plus MCDF, all administered in corn oil at 10 ml/kg and terminated 72 hours later.
as §1, §2

[2] = Table 3: 50 μmol/kg + E-2 (2 × 10 μg/rat)
[3] = Table 3: compound alone, 50 μmol/kg (17β-estradiol: 2 × 10 μg/rat)
[4] = 150 μmol/kg + E-2 (2 × 10 μg/rat), run B
[5] = compound alone, 150 μmol/kg (17β-estradiol: 2 × 10 μg/rat), run B
[6] = 150 μmol/kg + E-2 (2 × 10 μg/rat), run A
[7] = compound alone, 150 μmol/kg (17β-estradiol: 2 × 10 μg/rat), run A

Row | SMILES | Uterine Wet Weight (female rat uterus; [2]) [% body wt] | Uterine Wet Weight (female rat uterus; [3]) [% body wt] | Progesterone Receptor Levels, Cytosolic [1, 2] [fmol/mg protein] | Progesterone Receptor Levels, Nuclear [1, 2] [fmol/mg protein] | Progesterone Receptor Levels, Cytosolic [1, 3] [fmol/mg protein] | Progesterone Receptor Levels, Nuclear [1, 3] [fmol/mg protein] | Estrogen Receptor Levels, Cytosolic (estrogen receptor (ER); [2]) [fmol/mg protein] | Estrogen Receptor Levels, Nuclear (estrogen receptor (ER); [2]) [fmol/mg protein] | Estrogen Receptor Levels, Cytosolic (estrogen receptor (ER); [3]) [fmol/mg protein] | Estrogen Receptor Levels, Nuclear (estrogen receptor (ER); [3]) [fmol/mg protein] | Uterine Wet Weight (female rat uterus; [4]) [% body wt] | Uterine Wet Weight (female rat uterus; [5]) [% body wt] | Progesterone Receptor Levels, Cytosolic [1, 4] [fmol/mg protein] | Progesterone Receptor Levels, Nuclear [1, 4] [fmol/mg protein] | Progesterone Receptor Levels, Cytosolic [1, 5] [fmol/mg protein] | Progesterone Receptor Levels, Nuclear [1, 5] [fmol/mg protein] | Estrogen Receptor Levels, Cytosolic (estrogen receptor (ER); [4]) [fmol/mg protein] | Estrogen Receptor Levels, Nuclear (estrogen receptor (ER); [4]) [fmol/mg protein] | Estrogen Receptor Levels, Cytosolic (estrogen receptor (ER); [5]) [fmol/mg protein] | Estrogen Receptor Levels, Nuclear (estrogen receptor (ER); [5]) [fmol/mg protein] | also measured
1 | Cc1cc2c(cc1Br)oc1cc(Br)c(Br)cc12 | 0.259 ± 0.020 | 0.153 ± 0.003 | 505 ± 35 | 221 ± 15 | 362 ± 22 | 270 ± 16 | 133.3 ± 6.7 | 80.0 ± 4.8 | 128.2 ± 7.7 | 64.3 ± 4.6 |  |  |  |  |  |  |  |  |  |  | 
2 | Cc1cc2c(cc1Cl)oc1cc(Cl)c(Cl)cc12 | 0.237 ± 0.007 | 0.138 ± 0.026 | 607 ± 36 | 204 ± 12 | 554 ± 33 | 177 ± 11 | 85.7 ± 4.3 | 25.7 ± 1.3 | 113.9 ± 5.7 | 47.8 ± 2.4 |  |  |  |  |  |  |  |  |  |  | 
3 | CCc1cc(Cl)cc2c1oc1cc(Cl)cc(Cl)c12 [6-Ethyl-1,3,8-triCDF] |  |  |  |  |  |  |  |  |  |  | 0.226 ± 0.013 | 0.128 ± 0.007 | 1601 ± 121 | 277 ± 19 | 688 ± 49 | 243 ± 17 | 104.3 ± 77.1 | 34.9 ± 1.8 | 98.4 ± 5.5 | 33.9 ± 1.7 | 
4 | Clc1cc(Cl)c2c(c1)oc1c(Cl)cc(Cl)cc12 [1,3,6,8-tetraCDF] |  |  |  |  |  |  |  |  |  |  |  |  |  |  |  |  |  |  |  |  | Uterine Wet Weight (female rat uterus; [6]): 0.187 ± 0.020 % body wt; Uterine Wet Weight (female rat uterus; [7]): 0.123 ± 0.004 % body wt; Progesterone Receptor Levels, Cytosolic [1, 6]: 798 ± 83 fmol/mg protein; Progesterone Receptor Levels, Nuclear [1, 6]: 291 ± 71 fmol/mg protein; Progesterone Receptor Levels, Cytosolic [1, 7]: 571 ± 49 fmol/mg protein; Progesterone Receptor Levels, Nuclear [1, 7]: 199 ± 46 fmol/mg protein; Estrogen Receptor Levels, Cytosolic (estrogen receptor (ER); [6]): 75.5 ± 17.3 fmol/mg protein; Estrogen Receptor Levels, Nuclear (estrogen receptor (ER); [6]): 16.1 ± 2.3 fmol/mg protein; Estrogen Receptor Levels, Cytosolic (estrogen receptor (ER); [7]): 55.2 ± 5.6 fmol/mg protein; Estrogen Receptor Levels, Nuclear (estrogen receptor (ER); [7]): 18.5 ± 3.8 fmol/mg protein
5 | CCCc1cc(Cl)cc2c1oc1cc(Cl)cc(Cl)c12 [6-n-Propyl-1,3,8-triCDF] |  |  |  |  |  |  |  |  |  |  | 0.240 ± 0.019 | 0.118 ± 0.008 | 1838 ± 62 | 408 ± 29 | 740 ± 71 | 294 ± 21 | 169.4 ± 6.0 | 33.7 ± 1.7 | 86.4 ± 8.1 | 35.4 ± 1.8 | 
